Data as given in paper PMC6934184, “Selective DNA-PKcs inhibition extends the therapeutic index of localized radiotherapy and chemotherapy” (The Journal of Clinical Investigation, 2019).

Biological target: T1, KIT A829P (Homo sapiens, UniProt P10721, A829P)
T1 construct: purchased Thermo Fisher Scientific (Life Technologies) SelectScreen
Test: SelectScreen LanthaScreen
Type: binding
Conditions: read-out: % displacement
Method in brief: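 NU5455 was profiled across the SelectScreen Broad panel of kinase activity and binding assays. Z'LYTE reactions such as CSF1R ran at apparent Km ATP, while the Adapta CAMK1 assay used ATP listed as 10. Values are given as percent.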

T1 sequence (P10721 26-976 A829P): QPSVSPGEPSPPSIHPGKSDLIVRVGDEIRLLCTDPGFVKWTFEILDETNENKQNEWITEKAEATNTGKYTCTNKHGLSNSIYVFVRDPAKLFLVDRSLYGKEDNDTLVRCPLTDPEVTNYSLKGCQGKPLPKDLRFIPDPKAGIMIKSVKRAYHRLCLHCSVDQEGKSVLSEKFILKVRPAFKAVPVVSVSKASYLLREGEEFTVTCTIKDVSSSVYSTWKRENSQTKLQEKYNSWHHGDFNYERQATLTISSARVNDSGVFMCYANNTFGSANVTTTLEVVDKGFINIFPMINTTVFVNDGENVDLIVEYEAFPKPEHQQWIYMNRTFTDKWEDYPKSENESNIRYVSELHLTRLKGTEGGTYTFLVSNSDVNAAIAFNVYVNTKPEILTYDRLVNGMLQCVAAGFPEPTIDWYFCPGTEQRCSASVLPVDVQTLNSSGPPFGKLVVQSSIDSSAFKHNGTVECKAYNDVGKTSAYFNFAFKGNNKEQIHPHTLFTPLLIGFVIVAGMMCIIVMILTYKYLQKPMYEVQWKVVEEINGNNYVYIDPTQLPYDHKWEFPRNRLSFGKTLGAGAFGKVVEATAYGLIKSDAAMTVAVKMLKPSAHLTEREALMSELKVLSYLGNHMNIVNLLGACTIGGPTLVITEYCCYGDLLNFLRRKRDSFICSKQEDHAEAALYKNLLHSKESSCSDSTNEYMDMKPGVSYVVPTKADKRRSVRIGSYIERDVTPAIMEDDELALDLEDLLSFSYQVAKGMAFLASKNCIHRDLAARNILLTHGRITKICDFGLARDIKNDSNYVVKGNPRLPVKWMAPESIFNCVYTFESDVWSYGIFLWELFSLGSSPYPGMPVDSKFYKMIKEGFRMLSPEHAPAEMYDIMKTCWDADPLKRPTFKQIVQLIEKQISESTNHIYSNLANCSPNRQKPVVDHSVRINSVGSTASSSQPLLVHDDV

CN(C(=O)CN1CCOCC1)c1ccc2sc3c(-c4cccc5c(=O)cc(N6CC7CCC(C6)O7)oc45)cccc3c2c1 [NU5455]
inhibition at 1 µM: 0.7%
